Reference: US20210087248A1, “MODIFIED FIBROBLAST GROWTH FACTOR 1 (FGF-1) POLYPEPTIDES WITH INCREASED BINDING AFFINITY FOR HEPARIN AND ASSOCIATED METHODS” (Florida State University Research Foundation, Inc., priority 2014, published 2021)

Tests used:
Assay in all cases: Heparin affinity study with isothermal titration calorimetry (ITC), sucrose octasulfate titration
Type in all cases: binding
Details in all cases: 25 °C
[1] = target: T1, human FGF-1 variant S116R (Ser116Arg), N-terminal six His tag (hisFGF S116R), SEQ ID NO: 2 (Homo sapiens, UniProt P05230, S131R)
T1 construct: six His tag (N); made in house; host or cells: E. coli BL21(DE3), pET21a (+)
T1 sequence (P05230 16-155 S131R): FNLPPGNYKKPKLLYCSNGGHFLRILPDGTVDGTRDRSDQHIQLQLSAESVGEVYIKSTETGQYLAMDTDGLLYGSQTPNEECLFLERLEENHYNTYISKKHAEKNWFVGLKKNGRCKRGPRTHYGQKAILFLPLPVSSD
Description: (§1) A codon-optimized synthetic gene encoding 140 amino acids form of human FGF-1 (SEQ ID NO: 1) with an N-terminal six His tag was cloned into the pET21a (+) expression vector. The His tag has shown no influence upon stability, heparin affinity and mitogenic activity. Residue Ser116 inside of the heparin binding site of FGF-1 was mutated to Arginine (SEQ ID NO: 2) and Lysine (SEQ ID NO: 3) individually to increase potential ionic interactions with the sulfonate groups in HSGAG. This was achieved using a QUICKCHANGE site-directed mutagenesis protocol.
(§2) Each mutation was confirmed by DNA sequencing. The pET21a (+)/BL21(DE3) E. coli host expression system was used to express the FGF-1 heparin affinity mutants. The expressed polypeptide was purified via sequential nickel-nitrilotriacetic acid (Ni-NTA) column (Qiagen) and heparin Sepharose resin (GE Life Sciences, Pittsburgh Pa.). Previous studies of wild-type FGF-1 have shown that the above purification procedure results in protein >99% pure and appropriate for all biophysical studies.
(§3) Purified modified FGF-1 samples of SEQ ID NOs: 2 and 3 were dialyzed into 20 mM N-(2-acetamido) iminodiacetic acid (ADA), 100 mM NaCl, pH 7.4 for an ITC study. An iTC200 microcalorimeter (MicroCal) was used for data collection. […] The ITC running parameters were: 31 injections; first injection volume 0.5 μl and the rest of the injections 1 μl; temperature 25° C.; reference power 5. The titration curve after baseline subtraction was fitted with a single ligand-binding site model by manufacturer's software (MicroCal Origin). At least three independent trials were collected for each modified FGF-1 samples.

[2] = target: T2, human FGF-1 variant S116K (Ser116Lys), N-terminal six His tag (hisFGF S116K), SEQ ID NO: 3 (Homo sapiens, UniProt P05230, S131K)
T2 construct: six His tag (N); made in house; host or cells: E. coli BL21(DE3), pET21a (+)
T2 sequence (P05230 16-155 S131K): as the sequence (P05230 16-155 S131R) above, with R116K counted along it
Description: as §1, §2, §3

[3] = target: human FGF-1 wild-type, no histag (no histag FGF wild-type), SEQ ID NO: 1 (Homo sapiens, UniProt P05230)
Sequence of human FGF-1 wild-type, no histag (no histag FGF wild-type), SEQ ID NO: 1 (P05230 16-155 limits assumed): as the sequence (P05230 16-155 S131R) above, with R116S counted along it

[4] = target: T3, human FGF-1 wild-type, 140 amino acid form, N-terminal six His tag (hisFGF wild-type), SEQ ID NO: 1 (Homo sapiens, UniProt P05230)
T3 construct: six His tag (N); made in house; host or cells: pET21a(+) vector; E. coli BL21(DE3) is stated for the mutants, inferred for the wild type
T3 sequence (P05230 16-155): as the sequence (P05230 16-155 S131R) above, with R116S counted along it

[5] = single ligand-binding site model

- Kd ([1]; 20 mM ADA, 100 mM NaCl, pH 7.4): 2.46 ± 0.25 µM
- ΔH ([1]; pH 7.4): (−7081) ± 217 cal/mol
- ΔS ([1]; pH 7.4): 1.84 ± 0.92 cal/mol/deg
- N (site) [1, 5]: 0.942 ± 0.036
- Kd ([2]; 20 mM ADA, 100 mM NaCl, pH 7.4): 3.1 ± 0.47 µM
- ΔH ([2]; pH 7.4): (−3339) ± 57 cal/mol
- ΔS ([2]; pH 7.4): (−6.42) ± 3.04 cal/mol/deg
- N (site) [2, 5]: 1.012 ± 0.014
- Kd ([3]; 20 mM ADA, 100 mM NaCl, pH 7.4): 3.85 ± 0.09 µM
- ΔH ([3]; pH 7.4): (−6963) ± 65 cal/mol
- ΔS ([3]; pH 7.4): 1.42 ± 0.18 cal/mol/deg
- N (site) [3, 5]: 0.980 ± 0.035
- Kd ([4]; 20 mM ADA, 100 mM NaCl, pH 7.4): 3.94 ± 0.19 µM
- ΔH ([4]; pH 7.4): (−7506) ± 95 cal/mol
- ΔS ([4]; pH 7.4): (−0.44) ± 0.23 cal/mol/deg
- N (site) [4, 5]: 0.917 ± 0.050
Compound: O=S(=O)(O)OC[C@H]1O[C@@](COS(=O)(=O)O)(O[C@H]2O[C@H](COS(=O)(=O)O)[C@@H](OS(=O)(=O)O)[C@H](OS(=O)(=O)O)[C@H]2OS(=O)(=O)O)[C@@H](OS(=O)(=O)O)[C@@H]1OS(=O)(=O)O [sucrose octasulfate]
